# Tested on: CC3 mRNA
# Assay: Inhibitory activity of siRNAs modified with MOE at different sites against CC3 mRNA in HepG2 cells (Example 8)
# Format: cell-based, human
# Settings: MOE at a single site
# Experimental: In vitro activities of siRNA compounds, such as RX502165 modified with MOE at different sites of a sense strand and RX502172 modified with MOE at different sites of an antisense strand, and a reference compound RX502001 without MOE modification on HepG2 cells were evaluated using the same experimental method as that in Example 2. A difference lies in that the siRNA compounds modified with MOE at different sites of the sense and antisense strands were used in the present example to replace the siRNA compounds used in Example 2. Relative quantitative calculation was performed for the target gene mRNA in various test groups by the preceding ΔΔCt method.
row,Substance,in vitro activity compared with the reference sequence (RX502001) without MOE modification
1,"RZ594011: siRNA conjugate, SEQ ID NOs 299/300 (chain 1 GUACGUGGACUGGAUUCUG; chain 2 CAGAATCCAGTCCACGTACTT; siRNA conjugate, conjugate and pattern not given here)",conducive to elevating the in vitro activity

# Tested on: coagulation factor XI (Factor XI, FXI) mRNA
# Assay: In vitro inhibitory activity of siRNA conjugates modified with TOM against FXI mRNA, free uptake by mouse primary hepatocytes (Example 6)
# Format: cell-based
# Settings: not given
# Experimental: The inhibitory activities of the siRNA conjugates modified with TOM at different sites of an antisense strand against a target gene FXI in mouse primary hepatocytes were evaluated by the same experimental method as that in Example 4. Differences lie in that the siRNA conjugates modified with TOM at different sites of an antisense strand were used in the present example to replace the siRNA conjugates used in Example 4, and that target gene FXI detection primers listed in Table 13 were used in the present example to replace target gene detection primers used in Example 4. Relative quantitative calculation was performed for the target gene mRNA in various test groups by the preceding ΔΔCt method.
row,Substance,in vitro activity compared with the reference sequence (RZ594001) without TOM modification
1,"RZ594035: siRNA conjugate, SEQ ID NOs 357/358 (chain 1 GUACGUGGACUGGAUUCUG; chain 2 CAGAATCCAGTCCACGTACTT; siRNA conjugate, conjugate and pattern not given here)",conducive to enhancing in vitro activity
2,"RZ594018: siRNA conjugate, SEQ ID NOs 313/314 (chain 1 GUACGUGGACUGGAUUCUG; chain 2 CAGAATCCAGTCCACGTACTT; siRNA conjugate, conjugate and pattern not given here)",conducive to enhancing in vitro activity
3,"RZ594009: siRNA conjugate, SEQ ID NOs 295/296 (chain 1 GUACGUGGACUGGAUUCUG; chain 2 CAGAATCCAGTCCACGTACTT; siRNA conjugate, conjugate and pattern not given here)",significantly weakened the in vitro activity
4,"RZ594016: siRNA conjugate, SEQ ID NOs 309/310 (chain 1 GUACGUGGACUGGAUUCUG; chain 2 CAGAATCCAGTCCACGTACTT; siRNA conjugate, conjugate and pattern not given here)",significantly weakened the in vitro activity
5,"RZ594014: siRNA conjugate, SEQ ID NOs 305/306 (chain 1 GUACGUGGACUGGAUUCUG; chain 2 CAGAATCCAGTCCACGTACTT; siRNA conjugate, conjugate and pattern not given here)",significantly weakened the in vitro activity
6,"RZ594005: siRNA conjugate, SEQ ID NOs 343/344 (chain 1 GUACGUGGACUGGAUUCUG; chain 2 CAGAATCCAGTCCACGTACTT; siRNA conjugate, conjugate and pattern not given here)",conducive to enhancing in vitro activity
7,"RZ594008: siRNA conjugate, SEQ ID NOs 293/294 (chain 1 GUACGUGGACUGGAUUCUG; chain 2 CAGAATCCAGTCCACGTACTT; siRNA conjugate, conjugate and pattern not given here)",significantly weakened the in vitro activity
8,"RZ594011: siRNA conjugate, SEQ ID NOs 299/300 (chain 1 GUACGUGGACUGGAUUCUG; chain 2 CAGAATCCAGTCCACGTACTT; siRNA conjugate, conjugate and pattern not given here)",conducive to enhancing in vitro activity
9,"RZ594015: siRNA conjugate, SEQ ID NOs 307/308 (chain 1 GUACGUGGACUGGAUUCUG; chain 2 CAGAATCCAGTCCACGTACTT; siRNA conjugate, conjugate and pattern not given here)",significantly weakened the in vitro activity
10,"RZ594004: siRNA conjugate, SEQ ID NOs 341/342 (chain 1 GUACGUGGACUGGAUUCUG; chain 2 CAGAATCCAGTCCACGTACTT; siRNA conjugate, conjugate and pattern not given here)",conducive to enhancing in vitro activity
11,"RZ594041: siRNA conjugate, SEQ ID NOs 369/370 (chain 1 GUACGUGGACUGGAUUCUG; chain 2 CAGAATCCAGTCCACGTACTT; siRNA conjugate, conjugate and pattern not given here)",conducive to enhancing in vitro activity
12,"RZ594013: siRNA conjugate, SEQ ID NOs 303/304 (chain 1 GUACGUGGACUGGAUUCUG; chain 2 CAGAATCCAGTCCACGTACTT; siRNA conjugate, conjugate and pattern not given here)",significantly weakened the in vitro activity
13,"RZ594024: siRNA conjugate, SEQ ID NOs 325/326 (chain 1 GUACGUGGACUGGAUUCUG; chain 2 CAGAATCCAGTCCACGTACTT; siRNA conjugate, conjugate and pattern not given here)",conducive to enhancing in vitro activity
14,"RZ594019: siRNA conjugate, SEQ ID NOs 315/316 (chain 1 GUACGUGGACUGGAUUCUG; chain 2 CAGAATCCAGTCCACGTACTT; siRNA conjugate, conjugate and pattern not given here)",conducive to enhancing in vitro activity
15,"RZ594012: siRNA conjugate, SEQ ID NOs 301/302 (chain 1 GUACGUGGACUGGAUUCUG; chain 2 CAGAATCCAGTCCACGTACTT; siRNA conjugate, conjugate and pattern not given here)",conducive to enhancing in vitro activity
16,"RZ594025: siRNA conjugate, SEQ ID NOs 327/328 (chain 1 GUACGUGGACUGGAUUCUG; chain 2 CAGAATCCAGTCCACGTACTT; siRNA conjugate, conjugate and pattern not given here)",conducive to enhancing in vitro activity
17,"RZ594040: siRNA conjugate, SEQ ID NOs 367/368 (chain 1 GUACGUGGACUGGAUUCUG; chain 2 CAGAATCCAGTCCACGTACTT; siRNA conjugate, conjugate and pattern not given here)",conducive to enhancing in vitro activity
18,"RZ594030: siRNA conjugate, SEQ ID NOs 347/348 (chain 1 GUACGUGGACUGGAUUCUG; chain 2 CAGAATCCAGTCCACGTACTT; siRNA conjugate, conjugate and pattern not given here)",conducive to enhancing in vitro activity
19,"RZ594006: siRNA conjugate, SEQ ID NOs 345/346 (chain 1 GUACGUGGACUGGAUUCUG; chain 2 CAGAATCCAGTCCACGTACTT; siRNA conjugate, conjugate and pattern not given here)",conducive to enhancing in vitro activity
